Our source for the IC50 values is patent publication US9328112B2, “Tetracyclic CDK9 kinase inhibitors” (AbbVie Inc., priority 2014, dated 2016).

One test addresses CDK9/Cyclin T1 (Homo sapiens (Human), UniProt P50750). The test can be described thus: CDK9 enzyme assay (LANCE ULight TR-FRET kinase assay). Conditions: 1000 μM ATP, 100 nM ULight MBP, kinase reaction 1 hour. The format is biochemical. In a few lines:
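TR-FRET readout (ex 320 nm; em 615/665 nm) after 1 h detection with 0.5 nM europium anti-phospho-MBP antibody in 20 mM EDTA stop buffer. Preceding 1 h kinase step: CDK9/Cyclin T1, ULight-MBP substrate at 100 nM, ATP at 1000 μM, compound pre-diluted in DMSO then buffer.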

Another test relates to H929 cells. The test can be described thus: Cell viability assay (Cell TiterGlo). The format is cell-based. Particulars: Homo sapiens, NCI-H929, 24 hours at 37° C., Cell TiterGlo luminescence. The procedure: The cell viability assay was performed using H929 cells. Cells were seeded in 96-well plates at 10,000 cells/well and, after overnight incubation, treated with compounds in a dose response of 3-fold dilutions from 10 μM to 0.005 μM ([…], 0.1% final DMSO concentration). After 24 hours at 37° C., cell viability was measured using Cell TiterGlo reagent (Promega) with a luminescence reader.

CDK9/Cyclin T1, sequence (P50750 whole entry): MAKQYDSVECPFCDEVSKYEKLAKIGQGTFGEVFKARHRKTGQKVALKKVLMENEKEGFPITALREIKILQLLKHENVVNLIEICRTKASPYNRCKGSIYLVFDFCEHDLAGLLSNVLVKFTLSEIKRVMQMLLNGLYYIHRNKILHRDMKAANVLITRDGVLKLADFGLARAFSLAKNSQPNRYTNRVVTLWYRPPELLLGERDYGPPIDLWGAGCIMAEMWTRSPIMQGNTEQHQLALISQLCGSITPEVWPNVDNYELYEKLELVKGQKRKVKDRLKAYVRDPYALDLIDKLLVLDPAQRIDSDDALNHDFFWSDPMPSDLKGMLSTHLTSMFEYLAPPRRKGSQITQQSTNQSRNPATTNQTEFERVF
CDK9/Cyclin T1, sequence (O60563 whole entry partner): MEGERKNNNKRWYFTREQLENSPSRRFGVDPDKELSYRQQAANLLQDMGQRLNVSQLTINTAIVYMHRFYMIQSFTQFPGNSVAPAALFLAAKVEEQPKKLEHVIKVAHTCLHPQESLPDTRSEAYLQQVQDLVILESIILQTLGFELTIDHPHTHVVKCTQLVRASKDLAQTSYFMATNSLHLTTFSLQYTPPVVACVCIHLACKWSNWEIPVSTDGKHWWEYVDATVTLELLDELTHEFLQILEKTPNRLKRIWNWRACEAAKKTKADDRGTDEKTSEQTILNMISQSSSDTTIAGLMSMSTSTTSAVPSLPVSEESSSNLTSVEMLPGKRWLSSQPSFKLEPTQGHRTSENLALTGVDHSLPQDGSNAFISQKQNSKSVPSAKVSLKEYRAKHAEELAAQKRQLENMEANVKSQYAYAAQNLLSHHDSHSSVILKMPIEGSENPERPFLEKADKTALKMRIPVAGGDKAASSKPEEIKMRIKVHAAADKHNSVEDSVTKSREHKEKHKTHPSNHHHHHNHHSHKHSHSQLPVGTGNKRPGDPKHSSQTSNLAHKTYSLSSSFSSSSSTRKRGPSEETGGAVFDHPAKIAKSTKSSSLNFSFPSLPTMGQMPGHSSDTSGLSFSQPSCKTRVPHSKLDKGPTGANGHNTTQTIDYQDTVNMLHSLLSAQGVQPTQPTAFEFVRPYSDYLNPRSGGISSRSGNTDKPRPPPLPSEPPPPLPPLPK

As to `CN1Cc2c(C3=CCN(C4CCC(C(C#N)C(=O)O)CC4)CC3)[nH]c3nccc(c23)-c2cc(F)ccc21` (centres unmarked) [Example 191, cyano{4-[4-(10-fluoro-7-methyl-6,7-dihydro-4H-3,4,7-triazadibenzo[cd,f]azulen-5-yl)-3,6-dihydropyridin-1(2H)-yl]cyclohexyl}acetic acid], the IC50 against CDK9/Cyclin T1 was determined as 88 nM; in the test with H929 cells, 440 nM.
For `CN1Cc2c(C3=CCNCC3)[nH]c3nccc(c23)-c2cc(F)ccc21` [Example 1, 10-fluoro-7-methyl-5-(1,2,3,6-tetrahydropyridin-4-yl)-6,7-dihydro-4H-3,4,7-triazadibenzo[cd,f]azulene], in that order: 21 nM and 40 nM.
As to `CNC(=O)N1CC2C=C(c3[nH]c4nccc5c4c3CN(C)c3ccc(F)cc3-5)CC2C1` (centres unmarked) [Example 76, 5-(10-fluoro-7-methyl-6,7-dihydro-4H-3,4,7-triazadibenzo[cd,f]azulen-5-yl)-N-methyl-3,3a,4,6a-tetrahydrocyclopenta[c]pyrrole-2(1H)-carboxamide], the IC50 stood at 41 nM at CDK9/Cyclin T1 and 22 nM in the test with H929 cells.
On the same counts, the results for `CN1Cc2c(C3=CCN(C4CC(CC(=O)O)C4)CC3)[nH]c3nccc(c23)-c2cc(F)ccc21` (centres unmarked) [Example 140, {3-[4-(10-fluoro-7-methyl-6,7-dihydro-4H-3,4,7-triazadibenzo[cd,f]azulen-5-yl)-3,6-dihydropyridin-1(2H)-yl]cyclobutyl}acetic acid] are 42 nM and 58 nM.
For `CN1Cc2c(-c3cccnc3)[nH]c3nccc(c23)-c2cc(F)ccc21` [Example 60, 10-fluoro-7-methyl-5-(pyridin-3-yl)-6,7-dihydro-4H-3,4,7-triazadibenzo[cd,f]azulene], the IC50 stood at 75 nM against CDK9/Cyclin T1 and 320 nM with H929 cells.
For `CN1Cc2c(C3=CC4CN(CC(=O)N(C)C5CC(O)C5)CC4C3)[nH]c3nccc(c23)-c2cc(F)ccc21` (centres unmarked) [Example 94, 2-[5-(10-fluoro-7-methyl-6,7-dihydro-4H-3,4,7-triazadibenzo[cd,f]azulen-5-yl)-3,3a,4,6a-tetrahydrocyclopenta[c]pyrrol-2 (1H)-yl]-N-(3-hydroxycyclobutyl)-N-methylacetamide], the IC50 at CDK9/Cyclin T1 is 100 nM; in the test on H929 cells, 91 nM.
Regarding `CN1Cc2c(-c3ccncc3)[nH]c3nccc(c23)-c2cc(F)ccc21` [Example 44, 10-fluoro-7-methyl-5-(pyridin-4-yl)-6,7-dihydro-4H-3,4,7-triazadibenzo[cd,f]azulene], the IC50 on CDK9/Cyclin T1 is 130 nM; in the test on H929 cells, 490 nM.
Turning to `CN1Cc2c(C3=CCN([C@H]4CC[C@@H](C(=O)O)CC4)CC3)[nH]c3ncc(F)c(c23)-c2ccccc21` [Example 183, cis-4-[4-(1-fluoro-7-methyl-6,7-dihydro-4H-3,4,7-triazadibenzo[cd,f]azulen-5-yl)-3,6-dihydropyridin-1(2H)-yl]cyclohexanecarboxylic acid], the figures for the IC50 against CDK9/Cyclin T1 and in the test with H929 cells were 80 nM and 14 nM, respectively.
For the molecule `CN(C)C(=O)CN1[C@H]2CC[C@@H]1C=C(c1[nH]c3nccc4c3c1CN(C)c1ccc(F)cc1-4)C2` [Example 55, 2-[(1R,5S)-3-(10-fluoro-7-methyl-6,7-dihydro-4H-3,4,7-triazadibenzo[cd,f]azulen-5-yl)-8-azabicyclo[3.2.1]oct-2-en-8-yl]-N,N-dimethylacetamide], the IC50 at CDK9/Cyclin T1 is 160 nM; with H929 cells, 150 nM.
For `CN1Cc2c(C3=C[C@H]4CC[C@@H](C3)N4S(C)(=O)=O)[nH]c3nccc(c23)-c2cc(F)ccc21` [Example 56, 10-fluoro-7-methyl-5-[(1R,5S)-8-(methylsulfonyl)-8-azabicyclo[3.2.1]oct-2-en-3-yl]-6,7-dihydro-4H-3,4,7-triazadibenzo[cd,f]azulene], in that order: 96 nM and 680 nM.
On the same counts, the results for `CN1Cc2c(C3=CCNCC3(C)C)[nH]c3nccc(c23)-c2cc(F)ccc21` [Example 92, 5-(3,3-dimethyl-1,2,3,6-tetrahydropyridin-4-yl)-10-fluoro-7-methyl-6,7-dihydro-4H-3,4,7-triazadibenzo[cd,f]azulene] are 420 nM and 1200 nM.
For the molecule `CN1Cc2c(C3=CCNCC3)[nH]c3nccc(c23)-c2cc(F)c(F)cc21` [Example 144, 9,10-difluoro-7-methyl-5-(1,2,3,6-tetrahydropyridin-4-yl)-6,7-dihydro-4H-3,4,7-triazadibenzo[cd,f]azulene], the IC50 against CDK9/Cyclin T1 is 29 nM; with H929 cells it was 7 nM.
On the same counts, the results for `CN1Cc2c(-c3cnc(N)nc3)[nH]c3nccc(c23)-c2cc(F)ccc21` [Example 46, 5-(10-fluoro-7-methyl-6,7-dihydro-4H-3,4,7-triazadibenzo[cd,f]azulen-5-yl)pyrimidin-2-amine] are 3300 nM and more than 10000 nM.
On to `CN1Cc2c(C3CCNCC3)[nH]c3nccc(c23)-c2cc(F)ccc21` [Example 21, 10-fluoro-7-methyl-5-(piperidin-4-yl)-6,7-dihydro-4H-3,4,7-triazadibenzo[cd,f]azulene], for which the IC50 is 400 nM against CDK9/Cyclin T1 and 460 nM in the test with H929 cells.
Consider `CN1Cc2c(C3CCN(CC(=O)N4CCC[C@H]4CO)CC3)[nH]c3nccc(c23)-c2cc(F)ccc21` [Example 26, 2-[4-(10-fluoro-7-methyl-6,7-dihydro-4H-3,4,7-triazadibenzo[cd, f]azulen-5-yl)piperidin-1-yl]-1-[(2S)-2-(hydroxymethyl)pyrrolidin-1-yl]ethanone], for which the IC50 against CDK9/Cyclin T1 was 93 nM; with H929 cells it was 150 nM.
On the same counts, the results for `CN1Cc2c(C3=CCCN(S(C)(=O)=O)C3)[nH]c3nccc(c23)-c2cc(F)ccc21` [Example 95, 10-fluoro-7-methyl-5-[1-(methylsulfonyl)-1,2,5,6-tetrahydropyridin-3-yl]-6,7-dihydro-4H-3,4,7-triazadibenzo[cd,f]azulene] are 130 nM and 1200 nM.
For `CN1Cc2c(C3=CCN([C@H]4CC[C@H](CC(=O)O)CC4)CC3)[nH]c3nccc(c23)-c2cc(F)ccc21` [Example 130, {trans-4-[4-(10-fluoro-7-methyl-6,7-dihydro-4H-3,4,7-triazadibenzo[cd,f]azulen-5-yl)-3,6-dihydropyridin-1(2H)-yl]cyclohexyl}acetic acid], the IC50 against CDK9/Cyclin T1 was found to be 64 nM; in the test with H929 cells, 70 nM.
For `CN1Cc2c(C3=CCN(CC(=O)N4CCC[C@H]4CO)CC3(C)C)[nH]c3nccc(c23)-c2cc(F)ccc21` [Example 115, 2-[4-(10-fluoro-7-methyl-6,7-dihydro-4H-3,4,7-triazadibenzo[cd,f]azulen-5-yl)-3,3-dimethyl-3,6-dihydropyridin-1(2H)-yl]-1-[(2S)-2-(hydroxymethyl)pyrrolidin-1-yl]ethanone], the IC50 is 950 nM against CDK9/Cyclin T1 and 2600 nM in the test with H929 cells.
Take `CN1Cc2c(C3=CCN(CC(=O)OC(C)(C)C)CC3)[nH]c3ncc(F)c(c23)-c2cc(F)ccc21` [Example 65, tert-butyl[4-(1,10-difluoro-7-methyl-6,7-dihydro-4H-3,4,7-triazadibenzo[cd,f]azulen-5-yl)-3,6-dihydropyridin-1(2H)-yl]acetate]: the IC50 at CDK9/Cyclin T1 turned out to be 100 nM; in the test on H929 cells, 140 nM.
For `CN1Cc2c(C3=CCN(CC(=O)N(C)C4CC(O)C4)CC3)[nH]c3nccc(c23)-c2cc(F)c(F)cc21` (centres unmarked) [Example 148, 2-[4-(9,10-difluoro-7-methyl-6,7-dihydro-4H-3,4,7-triazadibenzo[cd,f]azulen-5-yl)-3,6-dihydropyridin-1(2H)-yl]-N-(3-hydroxycyclobutyl)-N-methylacetamide], in that order: 53 nM and 25 nM.
For `CN1Cc2c(C3=CCN(C4CCC(=CC(=O)OC(C)(C)C)CC4)CC3)[nH]c3nccc(c23)-c2cc(F)ccc21` (centres unmarked) [Example 175, tert-butyl{4-[4-(10-fluoro-7-methyl-6,7-dihydro-4H-3,4,7-triazadibenzo[cd,f]azulen-5-yl)-3,6-dihydropyridin-1(2H)-yl]cyclohexylidene}acetate], in that order: 120 nM and 490 nM.
On the same counts, the results for `CNC(=O)N1CCC=C(c2[nH]c3nccc4c3c2CN(C)c2ccc(F)cc2-4)C1` [Example 96, 5-(10-fluoro-7-methyl-6,7-dihydro-4H-3,4,7-triazadibenzo[cd,f]azulen-5-yl)-N-methyl-3,6-dihydropyridine-1(2H)-carboxamide] are 180 nM and 680 nM.
`CN1Cc2c(C3=CCN(S(C)(=O)=O)CC3)[nH]c3nccc(c23)-c2cccnc21` [Example 138, 7-methyl-5-[1-(methylsulfonyl)-1,2,3,6-tetrahydropyridin-4-yl]-6,7-dihydro-4H-3,4,7,8-tetraazadibenzo[cd,f]azulene]: the IC50 against CDK9/Cyclin T1 amounted to 69 nM; in the test with H929 cells it was 180 nM.
Consider `CN(C)C(=O)CN1CCC=C(c2[nH]c3nccc4c3c2CN(C)c2ccc(F)cc2-4)C1` [Example 97, 2-[5-(10-fluoro-7-methyl-6,7-dihydro-4H-3,4,7-triazadibenzo[cd,f]azulen-5-yl)-3,6-dihydropyridin-1(2H)-yl]-N,N-dimethylacetamide], for which the values for the IC50 against CDK9/Cyclin T1 and with H929 cells were 420 nM and 580 nM, respectively.
For `CC[C@@H]1c2c(C3=CCNCC3)[nH]c3nccc(c23)-c2cc(F)ccc2N1C` [Example 143, (6R)-6-ethyl-10-fluoro-7-methyl-5-(1,2,3,6-tetrahydropyridin-4-yl)-6,7-dihydro-4H-3,4,7-triazadibenzo[cd,f]azulene], in that order: 417 nM and 582 nM.
